According to US20240285740A1, “COMPOSITIONS AND METHODS FOR TREATING CANCER” (Dana-Farber Cancer Institute, Inc., priority 2021, published 2024):
Entries after “also recorded” stand apart in the source; their conditions may differ.

Assays:
[1] = biological target: human Galectin-3 (GAL3) (human) (UniProt P17931); test: cell-based or functional assay
[2] = tested on: PD1+ or LAG3+ T cells in BMMC from MM patients; test: Checkpoint (PD1, LAG3) expression on T cells in MM patient BMMC after modulator treatment, flow cytometry; type: cell-based, human; details: for upregulation / induction of other immune checkpoints: MM patient BMMC, among clinical grade checkpoint inhibitors and immune agonists evaluated (discussion)
Protocol: (§1) BMMC or PBMC from patients with MGUS, SMM, MM or healthy individuals were evaluated by flow cytometry analyses by staining cells with fluorochrome-conjugated mAb specific to each cell surface antigen for 30 minutes at room temperature, followed by LIVE/DEAD reagent staining to confirm viability. Regulatory T cells (Treg) were identified by cell surface staining (CD3, CD4, CD8, CD25), permeabilized using Foxp3/Transcription Factor Staining Buffer Set (eBioscience) and stained for intracellular FOXP3 expression. Myeloid-derived-suppressor cells (MDSC) were identified as G-type MDSC (CD11b+CD33+ HLA-DRlow/−CD14−CD15+) and M-type MDSC (CD11b+CD33+ HLA-DRlow/−CD14+CD15−). Cells were acquired using a BD Fortessa X-20 (BD Biosciences) flow cytometer, and the data was analyzed using DIVA™ v8.0 (BD) or FlowJo v10.0.7 (Tree star, Ashland, OR) software.
(§2) Proliferation of specific cell populations was evaluated using CFSE-based proliferation assays. In brief, MM patient BMMC, PBMC or XBP1/CD138/CS1-specific CTL were labeled with CFSE (Molecular Probes, Eugene, OR) and incubated with clinical grade checkpoint inhibitor (1 μg/ml) or immune agonist (1 μg/ml) in the presence of low dose (20 units) IL-2, with or without stimulation with irradiated MM cells (patients' cells, cell line) or MM lysates. After 4-7 days incubation, the cells were stained with LIVE/DEAD reagent and specific fluorochrome conjugated mAbs, washed, fixed in 2% paraformaldehyde, and acquired using a LSRII Fortessa™ flow cytometer.

[3] = tested on: CD4+ Treg in BMMC from MM patients; test: Treg proliferation in MM patient BMMC after modulator treatment; type: cell-based, human; details: for Treg proliferation: BMMC of MM patients (N=5), single agents compared, FIG. 5B
Protocol: as §1, §2

[4] = tested on: T cells in BMMC from MM patients; test: CFSE T cell proliferation in MM patient BMMC stimulated with irradiated tumor cells or tumor lysates; type: cell-based, human; details: BMMC (N=5), FIG. 9; for enhancement of tumor-lysate-induced T cell response: checkpoint inhibitors (anti-LAG3>anti-PD1) more than immune agonists
Protocol: (§3) Multiple myeloma (MM) cell lines U266, McCAR, HSB2, MMIS, RPMI8226, OPM2, H929, ANBL6, OCIMY5, AMO1 and KMS11 were obtained from ATCC (Manassas, VA). The T2 cell line, a human B and T cell hybrid expressing HLA-A2 molecules, was provided by Dr. J. Molldrem (University of Texas M. D. Anderson Cancer Center, Houston, TX). The cell lines were cultured in DMEM media supplemented with 10% fetal calf serum (FCS; BioWhittaker, Walkersville, MD), 100 IU/ml penicillin, and 100 μg/ml streptomycin (Gibco-Life Technologies, Rockville, MD). A mixture of ten MM cell lines was utilized to prepare tumor cell lysates by repeated (10×) cycles of freeze (−140° C.)/thaw (37° C.) or prepared as irradiated (20 Gy) whole tumor cells as sources of MM antigen stimulation.
as §2

U266 MM cells = test: CD107a degranulation and intracellular IFN-γ production of XBP1/CD138/CS1-specific CTL against MM; type: cell-based, human; details: CTL treated 1 μg/ml antibody 24 hours, then cultured with U266; FIG. 6C
Protocol: (§4) XBP1/CD138/CS1-specific CTL were generated ex vivo after four cycles of weekly stimulation of HLA-A2^+ CD3^+ T lymphocytes (N=5) with a cocktail of four peptides containing heteroclitic XBP1 US184-192 (YISPWILAV (SEQ ID NO: 24)), heteroclitic XBP1 SP367-375 (YLFPQLISV (SEQ ID NO: 25)), native CD138260-268 (GLVGLIFAV (SEQ ID NO: 26)) and native CS1239-247 (SLFVLGLFL (SEQ ID NO: 27)), as described previously.
The anti-tumor activities of MM-specific CTL were measured by CD107a degranulation and IFN-γ production against MM. In brief, XBP1/CD138/CS1-specific CTL were treated with clinical grade anti-PD1 or anti-LAG3 (1 μg/ml) for 24 hours. The cells were then cultured with U266 MM cells in the presence of CD107a mAb. After 1-hour incubation, Brefeldin A (BD) and Monensin (BD) were added, and cultures were incubated for an additional 5 hours. Cells were harvested, washed in PBS, stained with LIVE/DEAD reagent, washed, incubated with fluorochrome conjugated mAb to identify T cells, allowing for assays of their functional activity against MM. After surface staining, cells were fixed/permeabilized, stained for Th1 cytokines, washed with Perm/Wash solution (BD), and analyzed by flow cytometry. MP-CTL specific CD107a degranulation and Th1 cytokine production were analyzed using DIVA™ v8.0 or FlowJo v10.0.7 software.

[5] = tested on: T cells (CD3+, CD4+ Th, CD8+ Tc) in BMMC from MM patients; test: CFSE proliferation of T cells in MM patient BMMC treated with checkpoint inhibitor, immune agonist or LAG3-ligand antibody; type: cell-based, human; details: for CD3+ T cell proliferation: BMMC, newly diagnosed, relapsed or relapsed/refractory MM (N=10), vs untreated control
Description: BM aspirates and peripheral blood (PB) samples were obtained from patients with MGUS [BM: N=5, PB: N=5] and SMM [BM: N=5, PB: N=5] and patients with MM (Newly Diagnosed [BM: N=15, PB: N=10], Relapsed [BM: N=12, PB: N=12], Relapsed/Refractory [BM: N=15, PB: N=12]) after informed consent, in accordance with the Declaration of Helsinki, and with approval by the Institutional Review Board at Dana-Farber Cancer Institute (Boston, MA). In addition, healthy individuals BM [N=5] or leukapheresis [N=5] products were purchased from either AllCells (Alameda, CA) or the Blood Donor Center at Boston Children's Hospital (Boston, MA), respectively. Mononuclear cells were isolated from BM (BMMC) or PB (PBMC) by standard density gradient centrifugation using Ficoll-Paque™ Plus (Amersham Pharmacia Biotech AB, Uppsala Sweden) and used in these studies.
as §2

[6] = tested on: CD3+ T cells in PBMC from MM patients; test: CFSE T cell proliferation in MM patient PBMC with or without MM lysate stimulation; type: cell-based, human; details: newly diagnosed (N=6) or relapsed (N=3) MM, presence or absence of MM lysate, vs anti-PD1, anti-OX40, anti-GITR, FIG. 1C
Protocol: as §3
BM aspirates and peripheral blood (PB) samples were obtained from patients with MGUS [BM: N=5, PB: N=5] and SMM [BM: N=5, PB: N=5] and patients with MM (Newly Diagnosed [BM: N=15, PB: N=10], Relapsed [BM: N=12, PB: N=12], Relapsed/Refractory [BM: N=15, PB: N=12]) after informed consent, in accordance with the Declaration of Helsinki, and with approval by the Institutional Review Board at Dana-Farber Cancer Institute (Boston, MA). […]
Proliferation of specific cell populations was evaluated using CFSE-based proliferation assays. […]

[7] = tested on: XBP1/CD138/CS1-specific CD8+ CTL stimulated with U266 MM cells; test: CFSE proliferation of XBP1/CD138/CS1-specific CTL in response to HLA-A2+ U266 MM cells; type: cell-based, human; details: CTL (N=5) treated with antibody, α-LAG3>α-PD-1, FIG. 6B
Protocol: as §4, §2

[8] = BMMC of MM patients (N=10), FIG. 5A
[9] = BMMC of MM patients (N=10), antibody 1 μg/ml, low dose IL-2, FIG. 1B
[10] = antibody 1 μg/ml, low dose IL-2, FIG. 1B

Sequence of UniProt P17931 (P17931 2-250 limits assumed): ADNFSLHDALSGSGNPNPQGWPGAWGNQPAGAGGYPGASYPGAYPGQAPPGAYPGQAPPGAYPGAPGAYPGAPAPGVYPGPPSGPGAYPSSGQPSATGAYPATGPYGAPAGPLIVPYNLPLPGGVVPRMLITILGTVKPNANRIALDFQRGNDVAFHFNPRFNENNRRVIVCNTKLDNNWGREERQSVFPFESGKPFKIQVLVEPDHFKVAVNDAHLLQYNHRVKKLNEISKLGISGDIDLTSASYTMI

Substance: Anti-GAL3 antibody (BD, Clone B2C10; Cat Nos.: 565676-565678, and 565682)
- proliferation of CD4+Th cells in newly diagnosed MM patient BMMC, Patient #1 [1]: 13%
- proliferation of CD4+Th cells in newly diagnosed MM patient BMMC, Patient #2 [1]: 9%
- proliferation of CD8+Tc cells in newly diagnosed MM patient BMMC, Patient #1 [1]: 45%
- proliferation of CD8+Tc cells in newly diagnosed MM patient BMMC, Patient #2 [1]: 38%

Substance: anti-LAG3: Clinical grade checkpoint inhibitor, anti-LAG3 antibody Relatlimab, provided by Bristol-Myers Squibb
- upregulation of PD1 and LAG3 expression on T cells [2, 8]: induce upregulation
- upregulation / induction of other immune checkpoints [2]: lowest level
- impact of treatment on G-type MDSC and Tregs ([3]; BM milieu of MM patients (discussion)): low
- Treg proliferation [3]: lowest induction; also recorded: lowest level
- enhancement of tumor-lysate-induced T cell response [4]: enhanced to a greater extent
- T cell proliferation ([4]; mixture of ten MM cell lines as irradiated whole cells or tumor lysates, vs other immune modulators): significantly higher
- CD107a degranulation (U266 MM cells): highest anti-tumor activities
- IFN-γ production (U266 MM cells): highest anti-tumor activities
- proliferation of CD4+ Th cells [5, 9]: significant increase; also recorded: highest proliferation
- proliferation of CD8+ Tc cells [5, 9]: increased; also recorded: highest proliferation
- CD3+ T cell proliferation [5, 10]: triggered
- effector T cell proliferation ([5]; among clinical grade checkpoint inhibitors and immune agonists evaluated (discussion)): most robust
- T cell responses in BMMC/PBMC from MM patients compared with healthy donors ([5]; discussion): significantly increased
- T cell proliferation [6]: significantly (*p<0.05) higher
- proliferation of total CD8+ T cells and Central Memory, Effector Memory, CD28+ and CD38+ CTL subsets [7]: significantly increase; also recorded: enhanced proliferation

Substance: anti-PD1: Clinical grade checkpoint inhibitor, anti-PD1 antibody Nivolumab, provided by Bristol-Myers Squibb
- proliferation of T cells expressing an alternative immune checkpoint [2, 8]: to a greater extent than anti-LAG3 treatment
- upregulation of PD1 and LAG3 expression on T cells [2, 8]: induce upregulation
- upregulation / induction of other immune checkpoints [2]: highest level
- upregulation / induction of other immune checkpoints ([2]; listed as anti-PD-1 antibody): upregulate
- Treg proliferation [3]: high induction; also recorded: highest level
- expansion of Treg cells, single agent ([3]; BMMC, relapsed/refractory MM (N=3), FIG. 5C): significant (*p<0.05) expansion
- enhancement of tumor-lysate-induced T cell response [4]: enhanced to a greater extent
- proliferation of CD4+ Th cells [5, 9]: significant increase
- CD3+ T cell proliferation [5, 10]: triggered
- proliferation of total CD8+ T cells and Central Memory, Effector Memory, CD28+ and CD38+ CTL subsets [7]: significantly increase
